The source of these data is patent publication US8927571B2, “Pyrido[4,3-B]indoles and methods of use” (Medivation Technologies, Inc., priority 2009, dated 2015).

The assay deals with T1, human recombinant serotonin (5-Hydroxytryptamine) 5-HT2A receptor (Homo sapiens, UniProt P28223).
T1 construct: expressed in transfected cells; host or cells: Chinese hamster ovary (CHO-K1) cells
Kind of assay: Serotonin 5-HT2A radioligand binding assay ([3H]Ketanserin). The following applies: 0.5 nM [3H]Ketanserin, read-out: Percent Inhibition of ligand binding, Serotonin (1 μM) 5-HT2A. As to the method: Compounds of the invention were incubated with 0.5 nM [^3H]Ketanserin for 60 min at 25° C. Non-specific binding was estimated in the presence of 1 μM Mianserin. Receptor proteins were filtered and washed, the filters were then counted to determine [^3H]Ketanserin specifically bound. Compounds were screened at 1 μM or lower, using 1% DMSO as vehicle. Biochemical assay results are presented as the percent inhibition of specific binding in Table 4.

T1 sequence (P28223 whole entry): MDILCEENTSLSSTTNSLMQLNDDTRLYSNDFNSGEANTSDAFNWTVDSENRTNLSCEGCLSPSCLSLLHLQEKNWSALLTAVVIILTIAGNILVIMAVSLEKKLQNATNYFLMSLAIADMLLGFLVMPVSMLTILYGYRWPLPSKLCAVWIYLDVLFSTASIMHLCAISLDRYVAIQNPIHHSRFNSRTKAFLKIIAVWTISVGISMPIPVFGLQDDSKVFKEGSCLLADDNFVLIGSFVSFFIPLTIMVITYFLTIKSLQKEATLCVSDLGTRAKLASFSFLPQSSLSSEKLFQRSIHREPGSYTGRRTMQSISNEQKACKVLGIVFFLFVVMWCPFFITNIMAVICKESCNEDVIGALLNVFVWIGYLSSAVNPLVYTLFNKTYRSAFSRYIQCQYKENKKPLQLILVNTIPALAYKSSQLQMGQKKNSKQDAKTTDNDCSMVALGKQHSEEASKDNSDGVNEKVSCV

In general, inhibition refers to the percentage by which the read-out fell short of the control. Take `Cc1ccc2c(c1)c1c(n2CC(O)(c2ccccc2)c2ccc(F)cc2)CCN(C)C1` (stereo not shown) [Compound 1, 2-(2,8-dimethyl-3,4-dihydro-1H-pyrido[4,3-b]indol-5(2H)-yl)-1-(4-fluorophenyl)-1-phenylethanol]: the inhibition at 1 µM was found to be 97%.
